# Laboratory results taken from ChEMBL document CHEMBL5390318, “2-Amino-5-arylethynyl-thiophen-3-yl-(phenyl)methanones as A1 Adenosine Receptor Positive Allosteric Modulators” (ACS Med Chem Lett, 2023).
# Columns and labels:
# Translocator protein = Translocator protein (Homo sapiens, UniProt P30536); test: Binding affinity to TSPO (unknown origin)
# [1] = biological target: Beta-3 adrenergic receptor (Homo sapiens, UniProt P13945); test: Binding affinity to beta3 adrenergic receptor (unknown origin)
# [2] = biological target: 5-hydroxytryptamine receptor 7 (Homo sapiens, UniProt P34969); test: Binding affinity to 5HT-7A receptor (unknown origin)
# [3] = biological target: Sigma intracellular receptor 2 (Homo sapiens, UniProt Q5BJF2); test: Binding affinity to sigma 2 receptor (unknown origin)
# Sigma intracellular receptor 2, sequence (Q5BJF2 whole entry): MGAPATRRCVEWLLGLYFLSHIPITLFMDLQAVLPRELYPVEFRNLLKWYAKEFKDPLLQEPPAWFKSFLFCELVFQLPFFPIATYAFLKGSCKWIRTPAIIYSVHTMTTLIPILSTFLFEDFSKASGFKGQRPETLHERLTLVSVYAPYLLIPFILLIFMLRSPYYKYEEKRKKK
# Translocator protein, sequence (P30536 whole entry): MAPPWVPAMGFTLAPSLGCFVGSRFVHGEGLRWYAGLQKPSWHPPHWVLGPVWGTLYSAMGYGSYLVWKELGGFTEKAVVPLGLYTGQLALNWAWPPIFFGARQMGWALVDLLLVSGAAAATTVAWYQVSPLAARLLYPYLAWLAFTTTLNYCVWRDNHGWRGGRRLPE
# 5-hydroxytryptamine receptor 7, sequence (P34969 whole entry): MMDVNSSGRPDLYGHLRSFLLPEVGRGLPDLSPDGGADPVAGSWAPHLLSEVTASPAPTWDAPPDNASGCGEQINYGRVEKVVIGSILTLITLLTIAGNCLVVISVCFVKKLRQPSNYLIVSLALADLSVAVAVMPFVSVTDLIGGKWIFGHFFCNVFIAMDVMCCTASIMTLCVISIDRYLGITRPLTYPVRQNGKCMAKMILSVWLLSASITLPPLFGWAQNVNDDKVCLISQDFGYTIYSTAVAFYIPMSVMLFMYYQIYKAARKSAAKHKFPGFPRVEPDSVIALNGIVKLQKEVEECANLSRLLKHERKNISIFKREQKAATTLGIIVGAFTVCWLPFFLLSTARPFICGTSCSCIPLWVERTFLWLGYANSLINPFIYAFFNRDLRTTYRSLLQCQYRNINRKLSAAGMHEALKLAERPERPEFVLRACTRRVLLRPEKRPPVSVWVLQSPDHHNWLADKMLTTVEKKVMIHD
# Beta-3 adrenergic receptor, sequence (P13945 whole entry): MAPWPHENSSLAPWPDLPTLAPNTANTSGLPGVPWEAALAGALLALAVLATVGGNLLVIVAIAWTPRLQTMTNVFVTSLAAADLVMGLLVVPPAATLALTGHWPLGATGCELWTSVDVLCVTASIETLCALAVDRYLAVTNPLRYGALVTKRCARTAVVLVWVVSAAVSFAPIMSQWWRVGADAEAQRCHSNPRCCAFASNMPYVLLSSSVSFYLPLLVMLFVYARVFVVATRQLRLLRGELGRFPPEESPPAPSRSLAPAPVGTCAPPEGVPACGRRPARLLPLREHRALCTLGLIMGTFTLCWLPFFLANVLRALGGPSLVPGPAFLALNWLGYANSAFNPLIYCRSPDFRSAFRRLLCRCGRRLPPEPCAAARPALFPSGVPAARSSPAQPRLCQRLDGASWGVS
smiles,measurement,setting,value
CC(C)(C)Cc1c(C#Cc2ccccc2F)sc(N)c1C(=O)c1ccc(Cl)cc1,Ki,Translocator protein,560 nM
same,Ki,[1],3500 nM
same,Ki,[2],5700 nM
same,Ki,[3],1400 nM
